Results as given in article PMC11982978, “Cancer hotspot mutations rewire ERK2 specificity by selective exclusion of docking interactions” (The Journal of Biological Chemistry, 2025).
pIC50: −log10 of the molar value.

Experiments:
WT ERK2 [1] = assay: Y2H D-site library screen, WT ERK2; assay type: cell-based, rat; design: key: ES = slope of ln(Ft/F0) vs number of yeast population doublings; details: mutant ES is the combined average ES from the D319N and E320K screens
Description: To examine how cancer-associated CD site mutations affect the scope of ERK2 docking interactions, we adopted a Y2H strategy that we previously applied to define the D-site interactome of WT ERK2 ([15]). This system reports on interactions between ERK2 and a fragment of its substrate ELK1 that harbors a docking site essential for binding (Fig. 1C). The system thus evaluates the binding of potential sequences by substituting them for the native ELK1 docking site. We transformed Y2H strains with a bait plasmid expressing the Gal4 DNA-binding domain (DBD) fused to WT or CD mutant forms of rat ERK2 (R133K, D319N or E320K, equivalent respectively to human R135K, D321N and E322K), along with a prey plasmid expressing Gal4 activation domain (AD) fused to the ELK1 fragment harboring various docking site sequences. We then assayed these strains for growth on solid media under non-selective (+His) and selective conditions (−His) to detect interactions (Fig. 1D).
We previously used the Y2H system to screen WT ERK2 against a pooled library of 11,756 ELK1 variants incorporating potential docking sites from the human proteome ([15]). To identify interacting sequences either gained or lost upon ERK2 CD site mutation, we screened the same library against ERK2^D319N and ERK2^E320K. Yeast expressing ERK2 mutant bait plasmids were transformed with the ELK1 library pool and subjected to competitive growth under selective (−His) and non-selective conditions (+His) in parallel. Cultures were sampled periodically over ∼7 population doublings. The DNA sequence encoding the variable docking site region was PCR amplified and analyzed by next-generation sequencing (Fig. 2A, Dataset S1). The change in sequence abundance over time was fitted to an exponential function to assign an enrichment score (ES) to each docking site, where a higher ES indicates a greater increase in sequence abundance as the population grows. A significant enrichment of docking site sequences was observed only under selective conditions (Figs. 2B, S1). For each mutant, we observed generally good reproducibility across three independently conducted screens albeit with some sequences enriched in only a single replicate (Fig. S2, A and B). Average ES scores for the E320K and D319N mutant screens were better correlated with each other (R = 0.83) than were average ES scores for either mutant compared to WT ERK2 (R = 0.67 for WT versus D319N, R = 0.63 for WT versus E320K) (Fig. S2C).
To compare sequences selected by CD mutants with those selected by WT ERK2, we defined those sequences with an ES equal to or higher than three standard deviations from the mean (Z > 3) as hits. Using this cutoff, we obtained 121, 127, and 153 hits sequences from the WT, D319N, and E320K screens, respectively (Fig. 2C, Dataset S2).
Yeast harboring pGBT9-ERK2^E320K or pGBT9-ERK2^D319N were transformed with the pGADGH-ELK1 D-site library plasmid pool. Transformants (10–40 colonies per library component) were suspended in SD-Leu-Trp media, diluted to an OD600 of 0.1, and cultured in a shaking incubator at 30 °C to an OD600 of 1.0. The resulting culture was used to initiate a competitive selection screen. Cell growth, sample collection and data analysis were performed exactly as described previously for WT ERK2 ([15]). The frequency (F) of each D-site sequence at a given time point (t) was calculated by dividing the number of reads by the total read count for all sequences. For each sequence, a plot of ln(Ft/F0) as a function of the number of yeast population doublings was fit to a line, and the enrichment score (ES) for that sequence was defined as the slope of this line. Illumina sequencing reads, calculated ES, and Z scores for each screen are provided in Dataset S1.

WT ERK2 [2] = details: selective conditions (-His); hits Z > 3; average of three screens; cited from earlier work
Description: Supplement mmc2.xlsx, sheet "WT Hits" | column: Z-score

ERK2 WT = biological target: T1, ERK2 WT (Mus musculus, UniProt P63085); assay: Competitive peptide kinase assay (D-peptide inhibition), ERK2 WT; assay type: biochemical; details: Table 2, 5 μM D-site dependent reporter peptide, 10 nM ERK2, 10 μM ATP, pH 7.4, fluorescence, mean of three independent replicates
T1 construct: His6; made in house; host or cells: E. coli BL21(DE3), co-expressed with GST-MEK1ΔN3
T1 sequence (P63085 whole entry): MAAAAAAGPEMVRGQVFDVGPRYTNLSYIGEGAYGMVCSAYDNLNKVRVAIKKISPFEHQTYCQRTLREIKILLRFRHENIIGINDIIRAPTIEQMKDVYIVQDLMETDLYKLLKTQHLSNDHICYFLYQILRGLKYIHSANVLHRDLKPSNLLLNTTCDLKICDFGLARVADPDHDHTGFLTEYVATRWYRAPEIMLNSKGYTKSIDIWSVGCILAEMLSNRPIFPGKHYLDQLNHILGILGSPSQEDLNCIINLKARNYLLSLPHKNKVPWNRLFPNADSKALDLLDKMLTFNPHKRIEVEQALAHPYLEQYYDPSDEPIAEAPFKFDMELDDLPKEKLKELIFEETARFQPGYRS

Compound	WT ES - mutant ES (WT ERK2 [1])	Z-score (ES) of hit sequences, WT ERK2 Y2H screen (WT ERK2 [2])	pIC50 (ERK2 WT)
RLQERRGSNVALML [PTPN7, D-site 14-mer in ELK1 Y2H prey]	0.474	9.09	–
CC[C@H](C)[C@H](NC(=O)[C@H](C)NC(=O)[C@@H](N)Cc1ccc(O)cc1)C(=O)N[C@@H](CCCNC(=N)N)C(=O)N[C@@H](C)C(=O)N[C@@H](CCCNC(=N)N)C(=O)N[C@@H](CCCNC(=N)N)C(=O)N[C@@H](CCC(N)=O)C(=O)N[C@@H](CC(C)C)C(=O)N1CCC[C@H]1C(=O)N[C@@H](CCCNC(=N)N)C(=O)N[C@@H](CC(C)C)C(=O)N[C@@H](C)C(=O)N[C@H](C(=O)N[C@@H](CO)C(=O)N[C@@H](CC(=O)O)C(=O)O)C(C)C [ISG20 peptide G6Q]	–	–	4.39
KKGVKPKLVLNVTS [CMYA5, D-site 14-mer in ELK1 Y2H prey]	–	4.91	–
QGKTKRPVDLKIKN [TAGAP, D-site 14-mer in ELK1 Y2H prey]	–	3.38	–
KKSRVPPPPILLSR [CFAP54, D-site 14-mer in ELK1 Y2H prey]	–	11.93	–
RKEVKRKKVVHMNK [RNF151, D-site 14-mer in ELK1 Y2H prey]	–	6.59	–
KTKRNKILKLKFPR [ATP8B1, D-site 14-mer in ELK1 Y2H prey]	–	3.62	–
MQKKIKIPKLSLNH [BEND5, D-site 14-mer in ELK1 Y2H prey]	–	3.94	–
LRVRKARPQLILSR [NOL9, D-site 14-mer in ELK1 Y2H prey]	–	4.35	–
RQKKERPHMLNLSG [SYDE2, D-site 14-mer in ELK1 Y2H prey]	–	5.14	–
NKSLKNQHGLTLQL [ZNF534, D-site 14-mer in ELK1 Y2H prey]	–	12.39	–
RSVRKRSPWLQLPG [FCRLB, D-site 14-mer in ELK1 Y2H prey]	–	3.88	–
KPLKKKPTPVLLPQ [SEC63, D-site 14-mer in ELK1 Y2H prey]	–	3.34	–
RKRSKPKLKLKIIN [KMT2C, D-site 14-mer in ELK1 Y2H prey]	–	17.15	–
EKIKVKSTEVEILE [MUM1, D-site 14-mer in ELK1 Y2H prey]	–	3.47	–
NQKKPALKKLTLLP [IWS1, D-site 14-mer in ELK1 Y2H prey]	–	4.19	–
